Reference: US12714696B2, “Low dose fluralaner compositions for protection against parasitic invertebrate pest” (VIRBAC, priority 2019, dated 2026)

Columns and labels:
Assay type in all cases: in vivo
C. felis fleas = test: Efficacy against fleas on dogs, oral 35 μg/kg study
Protocol: (§1) The second objective was to investigate the pharmacodynamics between the fluralaner plasmatic dose and the effectiveness against fleas. • IVP: Investigational Veterinary Product, is pure Fluralaner+DMSO (35 μg/kg on Days 0 to 3 (0.35 mL/kg)) • Control product is DMSO (0.35 mL/kg on Days 0 to 3)
(§2) On Days 0, 1, 2 and 3, all dogs assigned to group 2 received the Investigational Veterinary Product. On Days 0 to 3 all dogs in group 1 received the control product at a volume equal to the dogs in group 2. Dogs assigned to group 1 received the control product and served as Placebo controls. The quantity of Investigational Veterinary Product and control product administered was calculated according to the dog's individual body weight measured on Day −1.
(§3) Dogs were infested with approximately 100 (±8) viable, adult, C. felis fleas on Day −6 for randomisation purposes and on Days 1, 2 and 3 to assess efficacy. Fleas were removed and counted on Days −5, 2, 3 and 4 (24 hours±2 hours after infestation). Dogs were also infested with approximately 50 (±4) viable, adult, unfed R. sanguineus ticks on Day 4 to assess acaricidal efficacy. Ticks will be removed and counted on Day 5 (24 hours±2 hours after infestation).
The efficacy against ticks and fleas were calculated for the study groups at each assessment day according to the formulas given below.
Efficacy was calculated as follows: Efficacy (%)=100×(Mc−Mt)/Mc, where: • Mc=Mean number of live ticks (categories 1 to 2) or live fleas on dogs in the negative control group (group 1) at a specific time point. • Mt=Mean number of live ticks (categories 1 to 2) or live fleas on dogs in the IVP group (group 2) • at a specific time point.

R. sanguineus ticks = test: Acaricidal efficacy on dogs, oral 35 μg/kg study; conditions: 48 h after the last of four doses of 35 μg/kg per day
Protocol: as §1, §2, §3
The efficacy against ticks and fleas were calculated for the study groups at each assessment day according to the formulas given below. […]

Rhipicephalus sanguineus = test: Efficacy against ticks on dogs, oral 250/35/600 μg/kg study

Cc1cc(C2=NOC(c3cc(Cl)cc(Cl)c3)(C(F)(F)F)C2)ccc1C(=O)NCC(=O)NCC(F)(F)F (centres unmarked) [fluralaner, Fluralaner]
efficacy against fleas (C. felis fleas; 24 h after the first three doses of 35 μg/kg per day, dogs): 100% | efficacy against fleas (C. felis fleas; 24 h after the first two doses of 35 μg/kg per day, dogs): 99.6% | efficacy against fleas (C. felis fleas; after the fourth and final dose of 35 μg/kg per day, dogs): 99.8% | efficacy against fleas from 24 hours after administration (C. felis fleas; infestation at D1, first measurement at D2, whatever the dose): high efficacy | efficacy against fleas (C. felis fleas; period Day 2 to Day 4, 24 hours after infestation, oral 35 μg/kg Days 0-3, dogs): 100% | efficacy against ticks (R. sanguineus ticks): 40.4% | live ticks, geometric mean, Group 2 (Rhipicephalus sanguineus; Day 23, oral 250/35/600 μg/kg regimen): 16.2 | live ticks, geometric mean, Group 2 (Rhipicephalus sanguineus; Day 31, oral 250/35/600 μg/kg regimen): 13.3
